Test results taken from patent publication US20240093251A1, “Reactivity of Nitrile Hydratase by Aldehyde” (Mitsubishi Chemical Corporation, priority 2021, published 2024).
Counter-ions that a name gives are not always drawn.

How the values were obtained:
Assay type in all cases: biochemical
nitrile hydratase [1] = assay: Amide formation reaction from acrylonitrile with Rhodococcus rhodochrous J-1 bacterial cells, acetaldehyde in acrylonitrile (Examples 1-4); conditions: for Concentration ratio (4 hr) (acrylonitrile concentration with aldehyde / without aldehyde x100): 20° C.
Procedure: Rhodococcus rhodochrous J-1 strain (FERMBP-1478) having nitrile hydratase activity was aerobically cultured in a medium (pH7.0) containing glucose (2.0%), urea (1.0%), peptone (0.5%), yeast extract (0.3%) and cobalt chloride (0.05%) at 30° C. The medium was washed with a 50 mM phosphate buffer (pH7.0) to obtain a bacterial suspension (3% on a dry-cell basis).
A cyan 1000-ppm standard solution (manufactured by Hayashi Pure Chemical Ind., Ltd.) was added to acrylonitrile for industrial use (manufactured by Mitsubishi Chemical Corporation) such that the hydrocyanic acid concentration became 2.1 ppm on a weight basis. […]
To a glass case (internal volume: 13.5 ml) with a lid, 3.15 g of a phosphate buffer (pH7.0), and 3.15 g of a diluted bacterial cell solution, which was prepared by diluting bacterial cells as mentioned above with the phosphate buffer (pH7.0) such that initial activity thereof in a reaction solution became 1460 U, were added. The mixture was stirred while controlling the temperature at 20° C. […] Four hours later, the reaction solution was collected and the concentration of acrylonitrile was measured by gas chromatography (column: PoraPack-PS (manufactured by Waters Corporation), 1 m, 210° C., carrier gas: helium, detector: FID).
(§1) The concentration ratio can be obtained in accordance with the following expression:
(§2) Concentration ratio [%]=(acrylonitrile concentration of the case where aldehyde was added/the case where aldehyde was not added)×100

nitrile hydratase [2] = assay: Test Example 1: effect of compounds on the amide formation reaction with Rhodococcus rhodochrous J-1 bacterial cells; conditions: hydrocyanic acid 2.0 ppm in acrylonitrile, 25° C.
Procedure: (§3) Acrylonitrile was prepared so as to have a hydrocyanic acid concentration of 2.0 ppm.
A diluted solution containing an aldehyde compound diluted with a phosphate buffer (pH7.0) so as to obtain a concentration of 5 ppm or 10 ppm in the reaction solution, was added, and finally the phosphate buffer (pH7.0) was added to obtain a total amount of 6.2 g. The obtained solution was stirred while the temperature thereof was controlled at 25° C. To this solution, acrylonitrile (4.8 mL (acrylamide 50% equivalent, 38 wt %)) was added to initiate a reaction. At the time points of 3.5, 4.5, 5.0, and 6.0 hours later, the reaction solution was collected and the concentration of acrylonitrile was measured by gas chromatography (column: PoraPack-PS (manufactured by Waters Corporation), 1 m, 210° C., carrier gas: helium, detector: FID).
as §1, §2

[3] = tested on: nitrile hydratase derived from Rhodococcus rhodochrous M8 strain; assay: Example 5: amide compound formation reaction by M8 strain-derived transformant (ATCC12674/pSJ-N01A); conditions: hydrocyanic acid 2.0 ppm in acrylonitrile, 25° C.
Procedure: (§4) The transformant (ATCC12674/pSJ-N01A) obtained in the above step was inoculated in MYK medium (50 μg/ml kanamycin) and subjected to shaking culture performed at 30° C. for two days. The cultured transformant (1%) was inoculated in GGPK medium (1.5% glucose, 1% monosodium glutamate, 0.1% yeast extract, 0.05% K2HPO4, 0.05% KH2PO4, 0.05% […], 1% CoCl2, 0.1% urea, 50 μg/ml kanamycin, pH7.2). Shaking culture was carried out at 30° C. for three days and bacterial cells were centrifugally collected. Thereafter, the bacterial cells were washed with a 100 mM phosphate buffer (pH7.0) and a bacterial suspension was prepared.
According to Example 1, the effect of propionaldehyde on amide compound formation reaction by M8 strain-derived transformant (ATCC12674/pSJ-N01A) was evaluated.
as §3
To a glass case (internal volume: 13.5 ml) with a lid, 1.00 g of a diluted bacterial-cell solution, which was prepared by diluting bacterial cells as mentioned above with the phosphate buffer (pH7.0) such that the initial amount of the bacterial cells in a reaction solution became 5.6 mg; and a diluted solution, which was prepared by diluting each aldehyde compound with a phosphate buffer (pH7.0) so as to obtain a concentration thereof of 10 ppm, 25 ppm or 50 ppm in a reaction solution, were added; and finally, a phosphate buffer (pH7.0) was added up to a total amount of 9.0 g. The solution obtained was stirred while the temperature thereof was controlled at 25° C. To this solution, acrylonitrile (1.0 g) was added to initiate a reaction. Six hours later, the reaction solution was collected and the concentration of acrylonitrile was measured by gas chromatography (column: PoraPack-PS (manufactured by Waters Corporation), 1 m, 210° C., carrier gas: helium, detector: FID).
as §1, §2

[4] = tested on: nitrile hydratase derived from Pseudonocardia thermophila JCM3095 strain; assay: Example 6: amide compound formation reaction by transformant (ATCC12674/pSJ-N02A); conditions: propionaldehyde 7 ppm in reaction solution, propionaldehyde/cyan 10.7 mol/mol, hydrocyanic acid 2.0 ppm in acrylonitrile, 25° C.
Procedure: as §4, with “(ATCC12674/pSJ-N02A)” for “(ATCC12674/pSJ-N01A)”
According to Example 1, the effect of propionaldehyde on amide compound formation reaction by transformant (ATCC12674/pSJ-N02A) was evaluated.
Acrylonitrile was prepared so as to have a hydrocyanic acid concentration of 2.0 ppm. […]

[5] = 5 ppm addition in reaction solution
[6] = 10 ppm addition in reaction solution

Compound	Concentration Ratio (3.5 hr) (nitrile hydratase [2]; [5]) [%]	Concentration Ratio (6 hr) (nitrile hydratase [2]; [5]) [%]	other results
CC=O [No. 2, acetaldehyde]	7.5	9.2	Concentration ratio (4 hr) (acrylonitrile concentration with aldehyde / without aldehyde x100) (nitrile hydratase [1]; Example 1: hydrocyanic acid 2.1 ppm, acetaldehyde 10 ppm in acrylonitrile, acetaldehyde/cyan 2.9 mol/mol): 38.8%; Concentration ratio (4 hr) (acrylonitrile concentration with aldehyde / without aldehyde x100) (nitrile hydratase [1]; Example 2: hydrocyanic acid 2.1 ppm, acetaldehyde 6 ppm in acrylonitrile, acetaldehyde/cyan 1.8 mol/mol): 76.1%; Concentration ratio (4 hr) (acrylonitrile concentration with aldehyde / without aldehyde x100) (nitrile hydratase [1]; Example 3: hydrocyanic acid 2.1 ppm, acetaldehyde 3 ppm in acrylonitrile, acetaldehyde/cyan 0.9 mol/mol): 92.5%; Concentration ratio (4 hr) (acrylonitrile concentration with aldehyde / without aldehyde x100) (nitrile hydratase [1]; Example 4: hydrocyanic acid 1.1 ppm, acetaldehyde 10 ppm in acrylonitrile, acetaldehyde/cyan 5.6 mol/mol): 9.8%; rate of a reaction that converts acrylonitrile to an amide compound (nitrile hydratase [1]; compared to Comparative Example without acetaldehyde, hydrocyanic acid 2.1 ppm or 1.1 ppm): high
CCC=O [No. 3, propionaldehyde]	2.2	1.4	Concentration Ratio (6 hr) ([3]; propionaldehyde 10 ppm in reaction solution, propionaldehyde/cyan 22.9 mol/mol): 82.7%; Concentration Ratio (6 hr) ([3]; propionaldehyde 25 ppm in reaction solution, propionaldehyde/cyan 57.1 mol/mol): 70.4%; Concentration Ratio (6 hr) ([3]; propionaldehyde 50 ppm in reaction solution, propionaldehyde/cyan 114.3 mol/mol): 60.0%; Concentration Ratio (6 hr) [4]: 33.3%
CCCC=O [No. 4, butyraldehyde]	3.1	2.7	
CCCCCC=O [No. 5, hexanal]	83.9	17.8	
CCCCCCC=O [No. 6, heptanal]	62.1	17.6	
CCCCCCCC=O [No. 7, octanal]	106.4	117.5	Concentration Ratio (3.5 hr) (nitrile hydratase [2]; [6]): 72.9%; Concentration Ratio (6 hr) (nitrile hydratase [2]; [6]): 11.6%
CCCCCCCCC=O [No. 8, nonanal]	97.1	81.4	Concentration Ratio (3.5 hr) (nitrile hydratase [2]; [6]): 80.1%; Concentration Ratio (6 hr) (nitrile hydratase [2]; [6]): 35.0%
CCCCCCCCCC=O [No. 9, decanal]	96.1	67.0	
O=CO [No. 10, formic acid, reference compound]	99.6	88.9	Concentration Ratio (3.5 hr) (nitrile hydratase [2]; [6]): 95.1%; Concentration Ratio (6 hr) (nitrile hydratase [2]; [6]): 94.9%
O=CC=O [No. 11, dialdehyde oxalate]	33.4	12.2	
OC[C@@H](O)[C@@H](O)CO [No. 12, meso-erythritol, reference compound]	103.3	118.2	Concentration Ratio (3.5 hr) (nitrile hydratase [2]; [6]): 97.8%; Concentration Ratio (6 hr) (nitrile hydratase [2]; [6]): 97.3%
O=Cc1ccccc1 [No. 15, benzaldehyde]	92.0	66.2	
O=CC=Cc1ccccc1 [No. 16, cinnamaldehyde]	97.0	102.6	Concentration Ratio (3.5 hr) (nitrile hydratase [2]; [6]): 99.2%; Concentration Ratio (6 hr) (nitrile hydratase [2]; [6]): 87.1%
C=C(C)C1CC=C(C=O)CC1 (stereo not shown) [No. 17, perillaldehyde]	82.8	59.6	
COc1cc(C=O)ccc1O [No. 18, vanillin]	92.9	71.7	
CC1NC(C)NC(C)N1 (stereo not shown) [No. 19, acetaldehyde ammonia]	30.0	3.3	
C1N2CN3CN1CN(C2)C3 [No. 20, hexamethylenetetramine]	0.3	2.4	
paraformaldehyde [No. 14]	1.1	1.1	
